Experimental data reported in patent US20200339548A1, “PYRIMIDINE DERIVATIVES AND THEIR USE FOR THE TREATMENT OF CANCER” (Adorx Therapeutics Limited, priority 2017, published 2020).
Structures can show the parent of a compound that is named as a salt.

Experiments:
Adenosine A2a receptor = molecular target: T1, Adenosine A2a receptor (Homo sapiens, UniProt P29274); assay: Adenosine receptor TR-FRET binding assay, A2a; details: displacement of 100 nM CA200645, CHO cell membranes
T1 construct: expressed in transfected cells; host or cells: CHO cell membranes
Procedure, shortened: (§1)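 Competition TR-FRET binding in CHO cell membranes expressing terbium-labelled human receptors, displacing fluorescent XAC (CA200645; 30 nM for A2b, 100 nM for A1, A2a, A3); 2 h at room temperature with saponin buffer, 1% DMSO. 665/620 nm ratio; non-specific with 10 μM XAC; Ki by Cheng–Prusoff from IC50.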

Adenosine A2b receptor = molecular target: T2, Adenosine A2b receptor (Homo sapiens, UniProt P29275); assay: Adenosine receptor TR-FRET binding assay, A2b; details: Table 9, further testing; displacement of 30 nM CA200645, CHO cell membranes
T2 construct: expressed in transfected cells; host or cells: CHO cell membranes
T2 sequence (P29275 1-332): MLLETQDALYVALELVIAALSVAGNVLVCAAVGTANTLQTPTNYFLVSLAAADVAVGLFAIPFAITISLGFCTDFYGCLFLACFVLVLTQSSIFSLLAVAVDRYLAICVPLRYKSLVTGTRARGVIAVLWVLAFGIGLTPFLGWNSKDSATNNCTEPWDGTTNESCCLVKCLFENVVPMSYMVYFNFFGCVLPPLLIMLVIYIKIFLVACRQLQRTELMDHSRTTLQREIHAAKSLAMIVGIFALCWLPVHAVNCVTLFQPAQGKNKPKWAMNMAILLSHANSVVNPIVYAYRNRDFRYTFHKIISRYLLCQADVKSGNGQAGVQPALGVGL
Procedure, shortened: as §1

Adenosine A1 receptor = molecular target: T3, Adenosine A1 receptor (Homo sapiens, UniProt P30542); assay: Adenosine receptor TR-FRET binding assay, A1; details: Table 9, further testing; displacement of 100 nM CA200645, CHO cell membranes
T3 construct: expressed in transfected cells; host or cells: CHO cell membranes
T3 sequence (P30542 1-326): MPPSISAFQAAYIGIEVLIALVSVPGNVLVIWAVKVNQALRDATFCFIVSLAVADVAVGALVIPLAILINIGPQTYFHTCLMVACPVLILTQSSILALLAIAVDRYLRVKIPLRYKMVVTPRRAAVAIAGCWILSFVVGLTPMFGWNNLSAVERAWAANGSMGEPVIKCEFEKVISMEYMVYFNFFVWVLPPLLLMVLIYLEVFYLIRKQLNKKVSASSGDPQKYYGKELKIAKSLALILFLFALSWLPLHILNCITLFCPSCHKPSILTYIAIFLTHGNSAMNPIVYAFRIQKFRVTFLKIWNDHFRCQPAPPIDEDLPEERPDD
Procedure, shortened: as §1

Adenosine A3 receptor = molecular target: T4, Adenosine A3 receptor (Homo sapiens, UniProt P0DMS8); assay: Adenosine receptor TR-FRET binding assay, A3; details: Table 9, further testing; displacement of 100 nM CA200645, CHO cell membranes; read-out: A3 Ki
T4 construct: expressed in transfected cells; host or cells: CHO cell membranes
T4 sequence (P0DMS8 1-318): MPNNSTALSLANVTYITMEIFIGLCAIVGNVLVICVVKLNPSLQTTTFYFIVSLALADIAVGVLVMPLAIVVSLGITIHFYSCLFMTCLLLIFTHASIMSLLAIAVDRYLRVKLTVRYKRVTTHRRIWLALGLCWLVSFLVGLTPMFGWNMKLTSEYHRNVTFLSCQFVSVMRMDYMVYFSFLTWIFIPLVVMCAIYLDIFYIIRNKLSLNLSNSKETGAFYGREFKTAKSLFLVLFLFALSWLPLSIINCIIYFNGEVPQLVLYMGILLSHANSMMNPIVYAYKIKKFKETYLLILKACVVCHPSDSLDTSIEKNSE
Procedure: All FRET binding experiments were conducted at room temperature in white 384-well plates, in assay binding buffer containing 1× LabMed (Cisbio, France), 100 μg/mL saponin, 1% DMSO and 0.02% pluronic acid. Binding of the fluorescently labelled Adenosine receptor antagonist XAC (CA200645, FRET acceptor) to terbium-labelled A1, A2a, A2b and A3 adenosine receptors (FRET donors) was detected by time-resolved FRET due to the close proximity of the donor and acceptor in a binding event. To investigate the ability of unlabelled test compounds to bind to Adenosine A1, A2a, A2b and A3 receptors, dose response curves were constructed that determined the ability of a range of concentrations to inhibit the binding of 30 nM CA200645 to the A2b receptor and 100 nM CA200645 to the A1, A2a, and A3 receptor.
Serial dilution (1:3 dilutions) of test compounds in neat DMSO and transfer of a 400 nL sample of test compound into the assay plate was carried out using the Mosquito (TTP Labtech, UK). The compound samples were incubated for 2 hours at room temperature with a fixed concentration of CA200645 defined for each receptor (see above) and CHO cell membranes containing the human Adenosine A1 (0.5 μg/well), A2a (0.3 μg/well), A2b (1 μg/well) or A3 (1 μg/well) receptor in 40 μL of assay buffer. Total and non-specific binding of CA200645 was determined in the absence and presence of 10 μM XAC, respectively.
Following 2 hours incubation, the level of CA200645 binding was detected on a Pherastar FSX (BMG Labtech, Germany) using standard TR-FRET settings. The terbium donor was excited with three laser flashes at a wavelength of 337 nm, and donor and acceptor emission was detected at 620 nm and 665 nm wavelengths, respectively. FRET ratios were obtained by multiplying the acceptor/donor ratio value by 10,000. Specific binding was determined by subtracting the non-specific binding FRET ratio from the total binding FRET ratio. Compound IC50 curves were analysed using GraphPad Prism 7.0 (GraphPad, USA) and Ki affinity values were determined from the obtained […] values using the method of Cheng and Prusoff.

Human PBMCs = assay: CD3/CD28 stimulated IL-2 release NECA reversal assay; format: cell-based; details: Homo sapiens, PBMC, read-out: IL-2 release NECA reversal IC50 (nM), 1 uM NECA, 24 hours
Procedure: Blood is drawn from healthy volunteers using sodium citrate as the anticoagulant (0.3% final concentration). […] 50 μl diluted compound mix is added to the cells, to obtain final concentrations of 1 ug/ml CD28 antibody, 1 uM NECA and 0.003-10 μM adenosine receptor antagonist. Assay plates are incubated for 24 hours at 37° C. in a humidified incubator.

T1 sequence (P29274 whole entry): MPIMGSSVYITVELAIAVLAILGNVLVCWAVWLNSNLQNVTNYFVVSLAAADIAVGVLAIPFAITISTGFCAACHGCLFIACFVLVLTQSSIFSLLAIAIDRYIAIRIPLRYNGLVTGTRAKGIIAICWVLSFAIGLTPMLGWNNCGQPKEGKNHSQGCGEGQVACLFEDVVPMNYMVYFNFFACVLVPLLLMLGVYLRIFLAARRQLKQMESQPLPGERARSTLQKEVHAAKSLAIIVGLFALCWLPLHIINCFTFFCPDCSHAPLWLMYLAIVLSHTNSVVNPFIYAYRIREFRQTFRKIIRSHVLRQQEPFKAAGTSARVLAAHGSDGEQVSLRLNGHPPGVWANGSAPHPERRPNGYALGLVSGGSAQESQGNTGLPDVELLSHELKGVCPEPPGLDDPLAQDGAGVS

Structure (SMILES)	Ki (Adenosine A2a receptor; Table 8, Cheng and Prusoff)	Ki (Adenosine A2a receptor; Table 9, further testing)	Ki (Adenosine A2b receptor)	Ki (Adenosine A1 receptor)	Ki (Adenosine A3 receptor)	IC50 (Human PBMCs)
Cc1cccnc1CNC(=O)c1nnc(-c2ccco2)nc1N [Example 2, 5-Amino-3-(2-furyl)-N-[(3-methyl-2-pyridyl)methyl]-1,2,4-triazine-6-carboxamide]	0.9 nM	0.79 nM	95 nM	318 nM	50 nM	408 nM
Cc1cccnc1CNC(=O)c1cnc(-c2cccc(F)c2)nc1N [Example 4.3, 4-Amino-2-(3-fluorophenyl)-N-[(3-methyl-2-pyridyl)methyl]pyrimidine-5-carboxamide]	12 nM	12 nM	689 nM	49 nM	54 nM	705 nM
COc1cccc(F)c1CNC(=O)c1cnc(-c2cccc(F)c2)nc1N [Example 5.2, 4-Amino-N-[(2-fluoro-6-methoxy-phenyl)methyl]-2-(3-fluorophenyl)pyrimidine-5-carboxamide]	20 nM	20 nM	113 nM	66 nM		1920 nM
CCOc1cccc(F)c1CNC(=O)c1cnc(-c2cccc(F)c2)nc1N [Example 5.3, 4-Amino-N-[(2-ethoxy-6-fluoro-phenyl)methyl]-2-(3-fluorophenyl)pyrimidine-5-carboxamide]	20 nM	20 nM	341 nM			1540 nM
Nc1nc(-c2ccco2)ncc1C(=O)NCc1cccc(Cl)c1 [Example 5.12, 4-Amino-N-[(3-chlorophenyl)methyl]-2-(2-furyl)pyrimidine-5-carboxamide]	4.1 nM	3.9 nM	1570 nM	962 nM	1160 nM	345 nM
Nc1nc(-c2ccco2)ncc1C(=O)NCc1ccccc1F [Example 5.18, 4-Amino-N-[(2-fluorophenyl)methyl]-2-(2-furyl)pyrimidine-5-carboxamide]	3.8 nM	3.3 nM	215 nM	1760 nM	1940 nM	230 nM
COc1ccccc1CNC(=O)c1cnc(-c2ccco2)nc1N [Example 5.20, 4-Amino-2-(2-furyl)-N-[(2-methoxyphenyl)methyl]pyrimidine-5-carboxamide]	1.1 nM	0.95 nM	1190 nM	426 nM	757 nM	122 nM
Nc1nc(-c2ccco2)ncc1C(=O)NC1CCc2ccccc21 (centres unmarked) [Example 5.23, 4-Amino-2-(2-furyl)-N-indan-1-yl-pyrimidine-5-carboxamide]	10 nM	10 nM		4750 nM		381 nM
Nc1nc(-c2ccco2)ncc1C(=O)NC1Cc2ccccc2C1 [Example 5.24, 4-Amino-2-(2-furyl)-N-indan-2-yl-pyrimidine-5-carboxamide]	2.4 nM	2.6 nM	1600 nM	1270 nM		364 nM
Cc1cccnc1CNC(=O)c1c(N)nc(-c2ccco2)nc1OCCCN [Example 23.5, 4-Amino-6-(3-aminopropoxy)-2-(2-furyl)-N-[(3-methyl-2-pyridyl)methyl]pyrimidine-5-carboxamide dihydrochloride]		23 nM	3060 nM	1060 nM	2150 nM	
Cn1ncnc1CNC(=O)c1c(N)nc(-c2cccc(C#N)c2)nc1OCCF [Example 24.7, 4-Amino-2-(3-cyanophenyl)-6-(2-fluoroethoxy)-N-[(2-methyl-1,2,4-triazol-3-yl)methyl]pyrimidine-5-carboxamide]		8.1 nM		145 nM	1610 nM	212 nM

Now those with a lower Ki (Adenosine A2a receptor; Table 9, further testing), led by results:

Ki (Adenosine A2a receptor; Table 8, Cheng and Prusoff)	Ki (Adenosine A2a receptor; Table 9, further testing)	Ki (Adenosine A2b receptor)	Ki (Adenosine A1 receptor)	Ki (Adenosine A3 receptor)	Structure (SMILES)	IC50 (Human PBMCs)
1.2 nM	0.71 nM	50 nM	787 nM		Nc1nc(-c2ccco2)ncc1C(=O)NCc1ccccc1O [Example 11.2, 4-amino-2-(2-furyl)-N-[(2-hydroxyphenyl)methyl]pyrimidine-5-carboxamide]	71 nM
0.93 nM	0.64 nM	297 nM	1350 nM		Nc1nc(-c2ccco2)ncc1C(=O)NCc1c(Cl)cccc1Cl [Example 5.16, 4-Amino-N-[(2,6-dichlorophenyl)methyl]-2-(2-furyl)pyrimidine-5-carboxamide]	102 nM
	0.62 nM	490 nM	59 nM	73 nM	Cc1cccnc1CNC(=O)c1c(N)nc(-c2ccco2)nc1OCCN [Example 23.1, 4-Amino-6-(2-aminoethoxy)-2-(2-furyl)-N-[(3-methyl-2-pyridyl)methyl]pyrimidine-5-carboxamide]	
	0.54 nM	382 nM	19 nM	5.6 nM	COCCOc1nc(-c2ccco2)nc(N)c1C(=O)NCc1ncccc1C [Example 20.6, 4-Amino-2-(2-furyl)-6-(2-methoxyethoxy)-N-[(3-methyl-2-pyridyl)methyl]pyrimidine-5-carboxamide]	
	0.52 nM	384 nM	44 nM	18 nM	CCCOc1nc(-c2ccco2)nc(N)c1C(=O)NCc1ncccc1C [Example 20.9, 4-Amino-2-(2-furyl)-N-[(3-methyl-2-pyridyl)methyl]-6-propoxy-pyrimidine-5-carboxamide]	
	0.21 nM	540 nM	13 nM	1.4 nM	COCC(C)Oc1nc(-c2ccco2)nc(N)c1C(=O)NCc1ncccc1C (centres unmarked) [Example 20.12, 4-Amino-2-(2-furyl)-6-(2-methoxy-1-methyl-ethoxy)-N-[(3-methyl-2-pyridyl)methyl]pyrimidine-5-carboxamide]	
	0.199 nM	165 nM	7.5 nM	24 nM	Cc1cccnc1CNC(=O)c1c(N)nc(-c2ccco2)nc1OCCCO [Example 20.8, 4-Amino-2-(2-furyl)-6-(3-hydroxypropoxy)-N-[(3-methyl-2-pyridyl)methyl]pyrimidine-5-carboxamide]	
